Measurements as given in patent US11857544B2, “Composition or method including (t)ew-7197 for treating or preventing corneal endothelial diseases” (THE DOSHISHA, priority 2017, dated 2024).

How the values were obtained:
[1] = tested on: immortalized human corneal endothelial cells from a Fuchs' endothelial corneal dystrophy patient (iFECD); assay: Suppression of TGF-β-induced corneal endothelial cell disorder, observed under a phase contrast microscope; type: cell-based; conditions: for effect of suppressing corneal endothelial cell disorder: Example 1, iFECD, 24 h pretreatment then 10 ng/ml TGF-β 24 h; for effect of suppressing corneal endothelial cell disorders: Example 2, iFECD + TGF-β
Procedure: The medium was removed from a culture dish culturing immortalized human corneal endothelial cells from a Fuchs' endothelial corneal dystrophy patient (iFECD), and 1×PBS(-) preheated to 37° C. was added and washed. This was repeated twice. 1×PBS(-) was added again and the medium was incubated for 5 minutes at 37° C. (5% CO2). After removing the PBS(-), 0.05% Trypsin-EDTA (Nacalai Tesque, 32778-34) was added and incubated for 5 minutes at 37° C. (5% CO2). The medium was then suspended and centrifuged for 3 minutes at 1500 rpm to retrieve cells. DMEM (Nacalai Tesque, 08456-36)+10% FBS (Biowest, S1820-500)+1% P/S (Nacalai Tesque, 26252-94) was used as the medium. The immortalized human corneal endothelial cells from a Fuchs' endothelial corneal dystrophy patient (iFECD) were seeded on a 12-well plate at a ratio of 8.0×10^4 cells per well and cultured for 24 hours at 37° C. (5% CO2). DMEM+10% FBS+1% P/S was used as the medium. After 24 hours, the medium was exchanged and cultured again for 24 hours. DMEM+2% FBS+1% P/S was used as the medium. After 24 hours, the medium was removed. 10 ng/ml of Transforming Growth Factor-132 Human recombinant (WAKO, 200-19911) was added, and the medium was cultured for 24 hours. DMEM+2% FBS+1% P/S was used as the medium. After 24 hours, the cell morphology and apoptosis were observed under a phase contrast microscope. After […] were seeded on a 12-well plate and cultured for 24 hours, the medium was removed. SB431542 (WAKO, 192-16541) and EW-7197 (Selleck Chemicals, 57530) were added so that the final concentration would each be 0.1, 0.3, 1, 3, or 10 μM, and the medium was cultured for 24 hours. DMEM+2% FBS+1% P/S was used as the medium. After 24 hours, the medium was removed. 10 ng/ml of Transforming Growth Factor-132 Human recombinant (WAKO, 200-19911) as well as SB431542 and EW-7197 were added so that the final concentration would each be 0.1, 0.3, 1, 3, or 10 μM, and the medium was cultured for 24 hours. DMEM+2% FBS+1% P/S was used as the medium. After 24 hours, the cell morphology and apoptosis were observed under a phase contrast microscope. After […] were seeded on a 12-well plate at a ratio of 7.0×10^4 cells and cultured for 24 hours, the medium was removed. EW-7197 (Selleck Chemicals, 57530) was added so that the final concentration would be 0.001, 0.003, 0.01, 0.03, 0.1, 0.3, 1, 3, 10, or 30 μM, and the medium was cultured for 24 hours. DMEM+2% FBS+1% P/S was used as the medium. After 24 hours, the medium was removed. 10 ng/ml of Transforming Growth Factor-132 Human recombinant (WAKO, 200-19911) and EW-7197 were added so that the final concentration would be 0.001, 0.003, 0.01, 0.03, 0.1, 0.3, 1, 3, 10, or 30 μM, and the medium was cultured for 24 hours. DMEM+2% FBS+1% P/S was used as the medium. After 24 hours, the cell morphology and apoptosis were observed under a phase contrast microscope.

fibronectin = assay: Area of fibronectin expression by immunostaining, Col8a2 knock-in mice (Example 5); type: in vivo; conditions: 0.02% eye drop, 8 weeks
Procedure: (§1) 5 μL of 0.02% (about 0.5 mM) EW-7197 eye drop or a base agent (7% DMSO containing PBS) was administered as an eye drop to both eyes of 4-month-old alpha 2 collagen 8 gene (Col8a2) knock-in mice 4 times a day for 8 weeks. The corneal endothelial cell density was measured using a specular microscope KS3M (Konan Medical, Inc.) at before eye drops, and 2, 4, 6, and 8 weeks after eye drops. Mice were euthanized by intraperitoneally administering an excessive amount (200 mg/kg body weight or greater) of anesthetic injection Somnopentyl (Kyoritsu Seiyaku Corporation) 8 weeks after injection. After confirming cardiac arrest, both eye balls were harvested. The harvested eye balls were incised to prepare a corneal fragment. Immunostaining of type I collagen and fibronectin was performed as follows. Image-Pro (Nippon Roper K.K.) was used to analyze the area of type I collagen and fibronectin expression.
After immobilizing a mouse corneal fragment for 10 minutes at room temperature in 4% paraformaldehyde, 0.5% TritonX-100 was added and allowed to permeate for 5 minutes. 1% bovine serum albumin (BSA) was added and the fragment was incubated for 1 hour at room temperature. The corneal fragment was then immersed in a primary antibody solution and reacted overnight at 4° C. […]

Col8a2 knock-in mice = assay: Corneal endothelial cell density after eye drops in Col8a2 knock-in mice (Example 5, 8 weeks); type: in vivo; conditions: for Amount of change in the corneal endothelial cell density (ΔECD): 0.02% eye drop 4 times a day
Procedure: as §1, with “This Example evaluated the efficacy of an EW-7197 eye drop on Fuchs' endothelial corneal dystrophy using a Fuchs' endothelial corneal dystrophy animal model, Col8a2 knock-in mice. Col8a2 knock-in mice are established animal models of Fuchs' endothelial corneal dystrophy (reference: Jun et al., Hum Mol Genet. 2012 Jan. 15; 21(2): 384-93). 5 μL” for “5 μL”

SMILES: Cc1cccc(-c2[nH]c(CNc3ccccc3F)nc2-c2ccc3ncnn3c2)n1 [EW-7197, N-((4-([1,2,4]triazolo[1,5-a]pyridin-6-yl)-5-(6-methylpyridin-2-yl)-1H-imidazol-2-yl)methyl)-2-fluoroaniline]
- effect of suppressing corneal endothelial cell disorder ([1]; compound at 3 μM and 10 μM): confirmed
- effect of suppressing corneal endothelial cell disorder ([1]; compound at 0.1, 0.3, and 1 μM): effectively suppressed
- effect of suppressing corneal endothelial cell disorders ([1]; compound at 3 μM and 10 μM): effectively suppressed
- effect of suppressing corneal endothelial cell disorders ([1]; compound at 0.03, 0.1, 0.3, and 1 μM): particularly excellent effect of suppressing corneal endothelial cell disorders
- effect of suppressing corneal endothelial disorders ([1]; summary statement, at a low concentration of 0.03 μM): very potent effect of suppressing corneal endothelial disorders
- area of fibronectin expression compared to the base agent group (fibronectin): decreasing trend
- decrease in the corneal endothelial cell density compared to the base agent group (Col8a2 knock-in mice; 0.02% eye drop): suppressed significantly
- Amount of change in the corneal endothelial cell density (ΔECD) (Col8a2 knock-in mice; week 0 (before eye drop)): 0 cells/mm^2
- Amount of change in the corneal endothelial cell density (ΔECD) (Col8a2 knock-in mice; week 4): −121.4 cells/mm^2
- Amount of change in the corneal endothelial cell density (ΔECD) (Col8a2 knock-in mice; week 8): −284.5 cells/mm^2
